Data as given in the supplement of paper PMC10627819.

Columns and labels:
B. subtilis 168 [1] = test: fitness (endpoint OD595 vs no drug) (fraction); higher = more growth
Summary of the method: (§1)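 In 384-well plates at 37 °C, cultures began at OD595 0.01 in 30 µl, with 55 µl used for S. pneumoniae. OD595 readings every 30 min for 14 h were corrected by the first reading. Fitness divides the stationary-phase transition optical density by the robust mean of no-drug control wells. The result is capped at 1.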

S. aureus DSM 20231 [2] = test: as above
Summary of the method: as §1

S. pneumoniae D39V [3] = test: as above
Summary of the method: as §1

B. subtilis 168 [4] = test: Bliss interaction score (quartile over a dose matrix) (fitness difference); higher = more antagonism (negative = synergy)
Summary of the method: (§2)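 Combination data were used to infer fitness under each single drug. Fitness is the OD595 at entry into stationary phase divided by the robust mean of the plate's no-drug wells, with a cap of 1. The Bliss score is the observed minus the expected product fitness, summarised by quartiles over technical, biological and donor/recipient replicates.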

S. aureus DSM 20231 [5] = test: as above
Summary of the method: as §2

S. aureus Newman = test: as above
Summary of the method: as §2

S. pneumoniae D39V [6] = test: as above
Summary of the method: as §2
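Wherever Bliss interaction score (quartile over a dose matrix) is given: first quartile when negative (synergy) and third quartile when positive (antagonism).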

CC(=O)NC[C@H]1CN(c2ccc(N3CCOCC3)c(F)c2)C(=O)O1 [Linezolid] + CN(N=O)C(=O)N[C@@H](C=O)[C@@H](O)[C@H](O)[C@H](O)CO [Streptozotocin]
fitness, one replicate
Conditions	partner 0.15 µg/mL	partner 0.3 µg/mL	partner 0.6 µg/mL	partner 1.2 µg/mL	partner 2.4 µg/mL	partner 4.8 µg/mL
B. subtilis 168 [1], first compound 0.0625 µg/mL	0.957	0.927	0.929	–	–	–
B. subtilis 168 [1], first compound 0.5 µg/mL	0.0222	0.0242	0.0095	–	–	–
S. aureus DSM 20231 [2], first compound 1 µg/mL	0.023	0.0376	0.0265	–	–	–
S. pneumoniae D39V [3], first compound 0.2 µg/mL	–	–	–	0.806	0.823	0.787
S. pneumoniae D39V [3], first compound 0.4 µg/mL	–	–	–	0.615	0.69	0.653
S. pneumoniae D39V [3], first compound 0.8 µg/mL	–	–	–	0.299	0.351	0.204

fitness
Conditions	partner 0.15 µg/mL	partner 0.3 µg/mL	partner 0.6 µg/mL	partner 1.2 µg/mL	partner 2.4 µg/mL	partner 4.8 µg/mL
B. subtilis 168 [1], first compound 0.125 µg/mL	0.479	0.502	0.453	–	–	–
B. subtilis 168 [1], first compound 0.25 µg/mL	0.0775	0.0625	0.0614	–	–	–
S. aureus DSM 20231 [2], first compound 0.125 µg/mL	0.778	0.738	0.68	–	–	–
S. aureus DSM 20231 [2], first compound 0.25 µg/mL	0.519	0.504	0.496	–	–	–
S. aureus DSM 20231 [2], first compound 0.5 µg/mL	0.129	0.176	0.133	–	–	–
S. pneumoniae D39V [3], first compound 0.105 µg/mL	–	–	–	0.771	0.815	0.778
S. pneumoniae D39V [3], first compound 0.21 µg/mL	–	–	–	0.69	0.668	0.704
S. pneumoniae D39V [3], first compound 0.42 µg/mL	–	–	–	0.438	0.432	0.408

Conditions	Bliss interaction score
B. subtilis 168 [4]	-0.0322
S. aureus DSM 20231 [5]	-0.0379
S. aureus Newman	-0.0367
S. pneumoniae D39V [6]	-0.115

CC(=O)NC[C@H]1CN(c2ccc(N3CCOCC3)c(F)c2)C(=O)O1 [Linezolid] + C[n+]1ccc(-c2cc[n+](C)cc2)cc1 [Paraquat]
fitness, one replicate
Conditions	partner 1.25 µg/mL	partner 1.5 µg/mL	partner 2.5 µg/mL	partner 3 µg/mL	partner 5 µg/mL	partner 6 µg/mL
B. subtilis 168 [1], first compound 0.0625 µg/mL	0.876	–	0.876	–	0.749	–
S. aureus DSM 20231 [2], first compound 1 µg/mL	0.0626	–	0.0623	–	0.0727	–
S. pneumoniae D39V [3], first compound 0.2 µg/mL	–	0.883	–	0.921	–	0.93
S. pneumoniae D39V [3], first compound 0.4 µg/mL	–	0.822	–	0.853	–	0.874
S. pneumoniae D39V [3], first compound 0.8 µg/mL	–	0.621	–	0.626	–	0.727

fitness
Conditions	first compound 0.105 µg/mL	first compound 0.125 µg/mL	first compound 0.21 µg/mL	first compound 0.25 µg/mL	first compound 0.42 µg/mL	first compound 0.5 µg/mL
B. subtilis 168 [1], partner 1.25 µg/mL	–	0.562	–	0.068	–	0.0393
B. subtilis 168 [1], partner 2.5 µg/mL	–	0.521	–	0.0848	–	0.0301
B. subtilis 168 [1], partner 5 µg/mL	–	0.531	–	0.101	–	0.0453
S. aureus DSM 20231 [2], partner 1.25 µg/mL	–	0.812	–	0.6	–	0.234
S. aureus DSM 20231 [2], partner 2.5 µg/mL	–	0.768	–	0.63	–	0.295
S. aureus DSM 20231 [2], partner 5 µg/mL	–	0.845	–	0.654	–	0.323
S. pneumoniae D39V [3], partner 1.5 µg/mL	0.876	–	0.76	–	0.598	–
S. pneumoniae D39V [3], partner 3 µg/mL	0.836	–	0.743	–	0.565	–
S. pneumoniae D39V [3], partner 6 µg/mL	0.826	–	0.711	–	0.565	–

Conditions	Bliss interaction score
B. subtilis 168 [4]	0.0297
S. aureus DSM 20231 [5]	0.0716
S. aureus Newman	-0.0403
S. pneumoniae D39V [6]	0.109

CC(=O)NC[C@H]1CN(c2ccc(N3CCOCC3)c(F)c2)C(=O)O1 [Linezolid] + COc1c(N2C[C@@H]3CCCN[C@@H]3C2)c(F)cc2c(=O)c(C(=O)O)cn(C3CC3)c12 [Moxifloxacin]
one replicate
Conditions	fitness
B. subtilis 168 [1], first compound 0.0625 µg/mL, partner 0.0312 µg/mL	0.0541
B. subtilis 168 [1], first compound 0.0625 µg/mL, partner 0.0625 µg/mL	0.0464
B. subtilis 168 [1], first compound 0.0625 µg/mL, partner 0.125 µg/mL	0.0299
S. aureus DSM 20231 [2], first compound 0.125 µg/mL, partner 0.06 µg/mL	0.712
S. aureus DSM 20231 [2], first compound 0.125 µg/mL, partner 0.12 µg/mL	0.535
S. aureus DSM 20231 [2], first compound 0.25 µg/mL, partner 0.06 µg/mL	0.655
S. aureus DSM 20231 [2], first compound 0.25 µg/mL, partner 0.12 µg/mL	0.536
S. aureus DSM 20231 [2], first compound 0.5 µg/mL, partner 0.06 µg/mL	0.44
S. aureus DSM 20231 [2], first compound 0.5 µg/mL, partner 0.12 µg/mL	0.368
S. aureus DSM 20231 [2], first compound 1 µg/mL, partner 0.0075 µg/mL	0.0168
S. aureus DSM 20231 [2], first compound 1 µg/mL, partner 0.015 µg/mL	0.0282
S. aureus DSM 20231 [2], first compound 1 µg/mL, partner 0.03 µg/mL	0.0258

Conditions	fitness
B. subtilis 168 [1], first compound 0.125 µg/mL, partner 0.0312 µg/mL	0.0559
B. subtilis 168 [1], first compound 0.125 µg/mL, partner 0.0625 µg/mL	0.0387
B. subtilis 168 [1], first compound 0.125 µg/mL, partner 0.125 µg/mL	0.0364
B. subtilis 168 [1], first compound 0.125 µg/mL, partner 2 µg/mL	0.036
B. subtilis 168 [1], first compound 0.125 µg/mL, partner 4 µg/mL	0.0272
B. subtilis 168 [1], first compound 0.125 µg/mL, partner 8 µg/mL	0.0181
B. subtilis 168 [1], first compound 0.25 µg/mL, partner 0.0312 µg/mL	0.242
B. subtilis 168 [1], first compound 0.25 µg/mL, partner 0.0625 µg/mL	0.0554
B. subtilis 168 [1], first compound 0.25 µg/mL, partner 0.125 µg/mL	0.0577
B. subtilis 168 [1], first compound 0.25 µg/mL, partner 2 µg/mL	0.0241
B. subtilis 168 [1], first compound 0.25 µg/mL, partner 4 µg/mL	0.0237
B. subtilis 168 [1], first compound 0.25 µg/mL, partner 8 µg/mL	0.0144
B. subtilis 168 [1], first compound 0.5 µg/mL, partner 0.0312 µg/mL	0.044
B. subtilis 168 [1], first compound 0.5 µg/mL, partner 0.0625 µg/mL	0.0596
B. subtilis 168 [1], first compound 0.5 µg/mL, partner 0.125 µg/mL	0.0457
B. subtilis 168 [1], first compound 0.5 µg/mL, partner 2 µg/mL	0.0308
B. subtilis 168 [1], first compound 0.5 µg/mL, partner 4 µg/mL	0.021
B. subtilis 168 [1], first compound 0.5 µg/mL, partner 8 µg/mL	0.0223
S. aureus DSM 20231 [2], first compound 0.125 µg/mL, partner 0.0075 µg/mL	0.795
S. aureus DSM 20231 [2], first compound 0.125 µg/mL, partner 0.015 µg/mL	0.743
S. aureus DSM 20231 [2], first compound 0.125 µg/mL, partner 0.03 µg/mL	0.671
S. aureus DSM 20231 [2], first compound 0.25 µg/mL, partner 0.0075 µg/mL	0.541
S. aureus DSM 20231 [2], first compound 0.25 µg/mL, partner 0.015 µg/mL	0.5
S. aureus DSM 20231 [2], first compound 0.25 µg/mL, partner 0.03 µg/mL	0.582
S. aureus DSM 20231 [2], first compound 0.5 µg/mL, partner 0.0075 µg/mL	0.12
S. aureus DSM 20231 [2], first compound 0.5 µg/mL, partner 0.015 µg/mL	0.178
S. aureus DSM 20231 [2], first compound 0.5 µg/mL, partner 0.03 µg/mL	0.272
S. pneumoniae D39V [3], first compound 0.105 µg/mL, partner 0.0037 µg/mL	0.739
S. pneumoniae D39V [3], first compound 0.105 µg/mL, partner 0.0075 µg/mL	0.741
S. pneumoniae D39V [3], first compound 0.105 µg/mL, partner 0.015 µg/mL	0.73
S. pneumoniae D39V [3], first compound 0.2 µg/mL, partner 0.005 µg/mL	0.839
S. pneumoniae D39V [3], first compound 0.2 µg/mL, partner 0.01 µg/mL	0.858
S. pneumoniae D39V [3], first compound 0.2 µg/mL, partner 0.02 µg/mL	0.826
S. pneumoniae D39V [3], first compound 0.21 µg/mL, partner 0.0037 µg/mL	0.647
S. pneumoniae D39V [3], first compound 0.21 µg/mL, partner 0.0075 µg/mL	0.651
S. pneumoniae D39V [3], first compound 0.21 µg/mL, partner 0.015 µg/mL	0.624
S. pneumoniae D39V [3], first compound 0.4 µg/mL, partner 0.005 µg/mL	0.704
S. pneumoniae D39V [3], first compound 0.4 µg/mL, partner 0.01 µg/mL	0.715
S. pneumoniae D39V [3], first compound 0.4 µg/mL, partner 0.02 µg/mL	0.68
S. pneumoniae D39V [3], first compound 0.42 µg/mL, partner 0.0037 µg/mL	0.366
S. pneumoniae D39V [3], first compound 0.42 µg/mL, partner 0.0075 µg/mL	0.424
S. pneumoniae D39V [3], first compound 0.42 µg/mL, partner 0.015 µg/mL	0.449
S. pneumoniae D39V [3], first compound 0.8 µg/mL, partner 0.005 µg/mL	0.45
S. pneumoniae D39V [3], first compound 0.8 µg/mL, partner 0.02 µg/mL	0.461

Conditions	Bliss interaction score
B. subtilis 168 [4]	0.0351
S. aureus DSM 20231 [5]	0.0931
S. aureus Newman	0.074
S. pneumoniae D39V [6]	0.0972
